Source: ChEMBL document CHEMBL3714727, “Novel dihydropyrimidinoisoquinolinones and pharmaceutical compositions thereof for the treatment of inflammatory disorders (gpr84 antagonists)” (2014)

Target: T1, G-protein coupled receptor 84 (Homo sapiens, UniProt Q9NQS5)
Assay: Antagonist activity against GPR84 (unknown origin) expressed in cell membranes assessed as inhibition of 3,3'-di-indolylmethane-induced [35S]GTPgammaS binding treated for 90 mins after 3,3'-di-indolylmethane stimulation in buffer containing 20 mM Tris at pH 7.5 by top-count assay
Format: functional

T1 sequence (Q9NQS5 whole entry): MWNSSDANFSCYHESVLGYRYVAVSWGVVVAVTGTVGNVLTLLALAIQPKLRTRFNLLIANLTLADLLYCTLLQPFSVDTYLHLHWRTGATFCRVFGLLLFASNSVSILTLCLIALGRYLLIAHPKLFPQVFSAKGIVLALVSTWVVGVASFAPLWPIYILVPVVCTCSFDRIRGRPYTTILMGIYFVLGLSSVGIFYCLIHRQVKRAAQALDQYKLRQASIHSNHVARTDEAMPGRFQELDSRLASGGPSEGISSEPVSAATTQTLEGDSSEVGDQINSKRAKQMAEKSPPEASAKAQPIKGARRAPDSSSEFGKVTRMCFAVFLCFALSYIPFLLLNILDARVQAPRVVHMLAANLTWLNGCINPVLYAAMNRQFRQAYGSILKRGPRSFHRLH

IC50 | Compound
> 1000 nM | CN(C)C(=O)c1cccc(-c2ccc3c(c2)CCn2c-3cc(OCC3CCCO3)nc2=O)c1 (centres undefined)
> 1000 nM | O=c1nc(OCC2CCCO2)cc2n1CCc1cc(-c3cncnc3)ccc1-2 (centres undefined)
> 1000 nM | Cc1cccc(C)c1-c1ccc2c(c1)CCn1c-2cc(OCC2CCCO2)nc1=O (centres undefined)
> 1000 nM | CC(C)(C)OC(=O)n1cccc1-c1ccc2c(c1)CCn1c-2cc(OCC2CCCO2)nc1=O (centres undefined)

Target: T1, G-protein coupled receptor 84
Assay: Antagonist activity against GPR84 (unknown origin) expressed in cell membranes assessed as inhibition of 3,3'-di-indolylmethane-induced [35S]GTPgammaS binding treated for 90 mins after 3,3'-di-indolylmethane stimulation in buffer containing 20 mM HEPES at pH 7.4 by top-count assay
Format: functional

IC50 | Compound
> 1000 nM | O=C(O)c1ccc(-c2ccc3c(c2)CCn2c-3cc(OCC3CCCO3)nc2=O)cc1 (centres undefined)
> 1000 nM | O=c1nc(OCC2CCCO2)cc2n1CCc1cc(O)ccc1-2 (centres undefined)
≤ 100 nM | COc1ccc(COc2ccc3c(c2)CCn2c-3cc(OCC3CCCO3)nc2=O)cc1 (centres undefined)
> 1000 nM | CC(C)N(C)C(=O)COc1ccc2c(c1)CCn1c-2cc(OCC2CCCO2)nc1=O (centres undefined)
> 1000 nM | Cn1cc(-c2ccc3c(c2)CCn2c-3cc(OCC3CCCO3)nc2=O)cn1 (centres undefined)
> 1000 nM | CN(C)C(=O)COc1ccc2c(c1)CCn1c-2cc(OCC2CCCO2)nc1=O (centres undefined)
≤ 100 nM | O=c1nc(OCC2CCCO2)cc2n1CCc1cc(OCc3cccc([N+](=O)[O-])c3)ccc1-2 (centres undefined)
> 1000 nM | NC(=O)COc1ccc2c(c1)CCn1c-2cc(OCC2CCCO2)nc1=O (centres undefined)
> 1000 nM | N#Cc1ccc(-c2ccc3c(c2)CCn2c-3cc(OCC3CCCO3)nc2=O)cc1 (centres undefined)
> 1000 nM | CCN(CC)C(=O)COc1ccc2c(c1)CCn1c-2cc(OCC2CCCO2)nc1=O (centres undefined)

The next lines start with the compound.

Compound | IC50
O=c1nc(OCC2COc3ccccc3O2)cc2n1CCc1cc(OCc3nnn[nH]3)ccc1-2 (centres undefined) | ≤ 100 nM
O=c1nc(OCC2COc3ncccc3O2)cc2n1CCc1cc(COCCN3CCOCC3)ccc1-2 (centres undefined) | ≤ 100 nM
O=c1nc(OCC2COc3ncccc3O2)cc2n1CCc1cc(C#CCNCc3ccccc3)ccc1-2 (centres undefined) | ≤ 100 nM
O=c1nc(OCC2COc3ncccc3O2)cc2n1CCc1cc(-c3cn[nH]c3)ccc1-2 (centres undefined) | ≤ 100 nM
CC(O)C#Cc1ccc2c(c1)CCn1c-2cc(OCC2COc3ncccc3O2)nc1=O (centres undefined) | ≤ 100 nM
CCCC(O)C#Cc1ccc2c(c1)CCn1c-2cc(OCC2COc3ncccc3O2)nc1=O (centres undefined) | ≤ 100 nM
N#CCOc1ccc2c(c1)CCn1c-2cc(OCC2CCCO2)nc1=O (centres undefined) | > 1000 nM
C=CCOc1ccc2c(c1)CCn1c-2cc(OCC2CCCO2)nc1=O (centres undefined) | > 1000 nM
CC(C)C(O)C#Cc1ccc2c(c1)CCn1c-2cc(OCC2COc3ncccc3O2)nc1=O (centres undefined) | ≤ 100 nM
O=c1nc(OCC2CCCO2)cc2n1CCc1cc(OCc3cccc(-c4ccccc4)n3)ccc1-2 (centres undefined) | > 1000 nM
N#CCOc1ccc2c(c1)CCn1c-2cc(OCC2COc3ncccc3O2)nc1=O (centres undefined) | ≤ 100 nM
O=c1nc(OCC2CCCO2)cc2n1CCc1cc(OCCOc3ccccc3)ccc1-2 (centres undefined) | ≤ 100 nM
CC(C)(C)NCc1ccc2c(c1)CCn1c-2cc(OCC2COc3ncccc3O2)nc1=O (centres undefined) | > 1000 nM
CC(C)(O)C#Cc1ccc2c(c1)CCn1c-2cc(OCC2COc3ncccc3O2)nc1=O (centres undefined) | ≤ 100 nM
O=c1nc(OCC2COc3ncccc3O2)cc2n1CCc1cc(OCc3ccccn3)ccc1-2 (centres undefined) | ≤ 100 nM
COc1ccc2c(c1)CCn1c-2cc(OCC2CCc3ccccc3O2)nc1=O (centres undefined) | > 1000 nM
CC1(COCc2ccc3c(c2)CCn2c-3cc(OCC3COc4ncccc4O3)nc2=O)COC1 (centres undefined) | ≤ 100 nM
O=c1nc(OCC2COc3ncccc3O2)cc2n1CCc1cc(OCc3nnn[nH]3)ccc1-2 (centres undefined) | ≤ 100 nM
O=c1nc(OCC2COc3ncccc3O2)cc2n1CCc1cc(COC3COC3)ccc1-2 (centres undefined) | ≤ 100 nM
O=c1nc(OCC2CCCO2)cc2n1CCc1cc(OCC3COc4ccccc4O3)ccc1-2 (centres undefined) | ≤ 100 nM
CCC(O)C#Cc1ccc2c(c1)CCn1c-2cc(OCC2COc3ncccc3O2)nc1=O (centres undefined) | ≤ 100 nM
O=C(NCC1COC1)c1ccc2c(c1)CCn1c-2cc(OCC2COc3ncccc3O2)nc1=O (centres undefined) | > 1000 nM
O=c1nc(OCC2COc3ncccc3O2)cc2n1CCc1cc(OCc3ncco3)ccc1-2 (single isomer, unassigned) | ≤ 100 nM
O=c1nc(OCC2CCCO2)cc2n1CCc1cc(OCc3cccc(-c4cncnc4)n3)ccc1-2 (centres undefined) | ≤ 500 nM
O=c1nc(OCC2COc3ncccc3O2)cc2n1CCc1cc(CN3CCCCC3)ccc1-2 (centres undefined) | ≤ 100 nM
